Results reported in ChEMBL document CHEMBL5523703, “Modulators for palmitoylation of proteins and small molecules” (Eur J Med Chem, 2024).

Experiments:
cells = conditions: Homo sapiens, HEK-293T, 24 h
HCC4006 = test: cells; conditions: Homo sapiens, HCC4006, 24 h
[1] = Inhibition of Wnt/beta-catenin signalling in HEK293 cells assessed as reduction in luciferase activity incubated for 24 hrs by TOPFlash luciferase reporter assay; format: cell-based; conditions: Homo sapiens, HEK293, 24 h
[2] = target: T1, Membrane-bound ghrelin O-acyltransferase MBOAT4 (Homo sapiens, UniProt Q96T53); test: Inhibition of GOAT (unknown origin)
T1 sequence (Q96T53 whole entry): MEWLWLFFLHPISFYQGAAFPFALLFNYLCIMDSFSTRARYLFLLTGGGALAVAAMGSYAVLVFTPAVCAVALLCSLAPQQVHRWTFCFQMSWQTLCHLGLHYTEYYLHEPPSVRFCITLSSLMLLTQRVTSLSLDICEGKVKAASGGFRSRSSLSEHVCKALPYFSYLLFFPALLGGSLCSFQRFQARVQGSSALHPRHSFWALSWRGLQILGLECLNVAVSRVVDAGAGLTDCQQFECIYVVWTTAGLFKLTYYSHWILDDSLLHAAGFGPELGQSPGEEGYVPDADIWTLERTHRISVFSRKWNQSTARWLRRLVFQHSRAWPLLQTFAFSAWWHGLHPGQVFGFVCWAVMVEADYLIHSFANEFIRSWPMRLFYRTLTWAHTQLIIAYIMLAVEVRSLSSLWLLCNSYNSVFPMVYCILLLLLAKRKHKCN

[3] = target: T2, Phosphatidylserine lipase ABHD16A (Homo sapiens, UniProt O95870); test: Inhibition of recombinant human ABHD16A expressed in HEK293T cells incubated for 1 hr by fluorescence based analysis; format: cell-based
T2 sequence (O95870 whole entry): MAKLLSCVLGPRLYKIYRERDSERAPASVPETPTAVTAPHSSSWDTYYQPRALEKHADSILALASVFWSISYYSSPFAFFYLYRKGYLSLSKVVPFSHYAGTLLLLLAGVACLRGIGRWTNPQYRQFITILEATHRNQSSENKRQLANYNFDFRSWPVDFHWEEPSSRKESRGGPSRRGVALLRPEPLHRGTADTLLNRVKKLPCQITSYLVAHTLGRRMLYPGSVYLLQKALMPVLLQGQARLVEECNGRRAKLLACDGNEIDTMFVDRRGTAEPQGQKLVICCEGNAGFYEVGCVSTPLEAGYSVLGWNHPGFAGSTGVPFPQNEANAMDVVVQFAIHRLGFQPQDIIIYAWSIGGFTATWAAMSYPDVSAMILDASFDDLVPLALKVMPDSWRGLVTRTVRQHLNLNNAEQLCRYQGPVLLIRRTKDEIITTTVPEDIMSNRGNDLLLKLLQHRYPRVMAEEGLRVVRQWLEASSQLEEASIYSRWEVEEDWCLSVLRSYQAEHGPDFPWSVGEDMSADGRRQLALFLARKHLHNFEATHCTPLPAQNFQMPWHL

[4] = Inhibition of SPT (unknown origin); set-up: species or system Homo sapiens
[5] = target: Palmitoyltransferase ZDHHC7 (Homo sapiens, UniProt Q9NXF8); test: Inhibition of ZDHHC7 (unknown origin)
Chain of Palmitoyltransferase ZDHHC7 (Q9NXF8 whole entry): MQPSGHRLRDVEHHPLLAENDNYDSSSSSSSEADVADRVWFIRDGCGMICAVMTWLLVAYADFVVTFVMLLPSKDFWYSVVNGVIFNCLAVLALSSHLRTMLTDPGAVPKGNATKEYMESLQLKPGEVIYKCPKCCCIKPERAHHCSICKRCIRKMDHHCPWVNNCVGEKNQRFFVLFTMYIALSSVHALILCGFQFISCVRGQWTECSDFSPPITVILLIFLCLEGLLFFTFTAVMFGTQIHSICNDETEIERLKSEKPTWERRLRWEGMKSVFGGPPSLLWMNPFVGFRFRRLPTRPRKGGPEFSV

[6] = target: Palmitoyltransferase ZDHHC9 (Homo sapiens, UniProt Q9Y397); test: Binding affinity to ZDHHC9 (unknown origin) assessed as inhibition constant
Chain of Palmitoyltransferase ZDHHC9 (Q9Y397 whole entry): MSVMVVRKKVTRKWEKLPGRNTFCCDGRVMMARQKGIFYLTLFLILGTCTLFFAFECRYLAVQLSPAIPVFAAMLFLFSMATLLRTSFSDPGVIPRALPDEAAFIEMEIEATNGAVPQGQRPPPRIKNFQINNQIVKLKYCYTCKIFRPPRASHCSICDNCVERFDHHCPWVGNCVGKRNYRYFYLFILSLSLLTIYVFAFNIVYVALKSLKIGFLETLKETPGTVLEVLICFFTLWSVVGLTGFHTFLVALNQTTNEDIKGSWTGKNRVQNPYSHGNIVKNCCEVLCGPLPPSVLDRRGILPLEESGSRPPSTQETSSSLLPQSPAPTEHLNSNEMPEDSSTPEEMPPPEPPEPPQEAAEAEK

[7] = Inhibition of Wnt/beta-catenin signalling in Wnt3a stimulated HEK293 cells assessed as reduction in luciferase activity incubated for 24 hrs by TOPFlash luciferase reporter assay; format: cell-based; conditions: Homo sapiens, HEK293, 24 h
[8] = target: Acyl-protein thioesterase 2 (Homo sapiens, UniProt O95372); test: Inhibition of APT2 (unknown origin)
Chain of Acyl-protein thioesterase 2 (O95372 whole entry, canonical isoform): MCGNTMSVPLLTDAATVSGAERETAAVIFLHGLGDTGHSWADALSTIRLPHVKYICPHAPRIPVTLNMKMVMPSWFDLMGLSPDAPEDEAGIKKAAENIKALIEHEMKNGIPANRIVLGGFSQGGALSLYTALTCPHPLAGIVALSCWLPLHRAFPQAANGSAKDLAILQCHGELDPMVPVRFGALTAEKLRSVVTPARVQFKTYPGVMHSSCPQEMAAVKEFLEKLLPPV

[9] = target: T3, Carnitine O-palmitoyltransferase 1, muscle isoform (Homo sapiens, UniProt Q92523); test: Inhibition of CPT1B (unknown origin) in KB cells; format: cell-based
T3 sequence (Q92523 whole entry): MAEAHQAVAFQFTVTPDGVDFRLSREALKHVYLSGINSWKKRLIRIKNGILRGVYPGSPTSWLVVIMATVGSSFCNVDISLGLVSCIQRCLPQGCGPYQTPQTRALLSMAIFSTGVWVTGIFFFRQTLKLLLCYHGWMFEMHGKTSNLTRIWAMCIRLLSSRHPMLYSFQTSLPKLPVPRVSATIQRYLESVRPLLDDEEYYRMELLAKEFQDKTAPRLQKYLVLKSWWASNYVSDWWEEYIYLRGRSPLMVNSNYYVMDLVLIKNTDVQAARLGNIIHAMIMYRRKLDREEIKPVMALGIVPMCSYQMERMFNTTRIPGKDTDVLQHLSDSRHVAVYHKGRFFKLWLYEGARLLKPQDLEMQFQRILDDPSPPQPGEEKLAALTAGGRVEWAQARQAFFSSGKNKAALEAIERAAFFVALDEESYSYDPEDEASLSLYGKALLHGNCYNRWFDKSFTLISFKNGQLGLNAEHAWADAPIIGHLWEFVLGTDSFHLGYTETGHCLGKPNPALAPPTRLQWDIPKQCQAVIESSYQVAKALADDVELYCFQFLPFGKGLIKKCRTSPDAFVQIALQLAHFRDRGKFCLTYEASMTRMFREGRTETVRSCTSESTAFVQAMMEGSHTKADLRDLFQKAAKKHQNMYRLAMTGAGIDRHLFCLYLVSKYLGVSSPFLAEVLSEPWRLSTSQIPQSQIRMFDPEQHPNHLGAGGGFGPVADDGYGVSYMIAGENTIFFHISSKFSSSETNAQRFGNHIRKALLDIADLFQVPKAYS

Homo sapiens = organism: Homo sapiens; test: Inhibition of ZDHHC (unknown origin) at 20 uM relative to control

With Cc1cc(-c2ncc(CC(=O)Nc3ccc(-c4cnccn4)cn3)cc2C)ccn1 [WNT-974] the IC50 (cells) was 0.0002 µM.

Molecule Cn1nc(C(F)(F)F)cc1C(=O)N[C@@H]1CCN(C(=O)c2cc(Cl)c3nccnc3c2)C[C@@H]1c1ccccc1 has an IC50 (HCC4006) of 0.011 µM.

CCc1cc(=O)oc2c(C)c(OCC(=O)Nc3ccc(N4CCCCC4)cc3)ccc12 showed an IC50 [1] of 0.71 µM.

Molecule CCCCCCCC(C)(O)/C=C/[C@H](NC(=O)OCc1ccccc1)C(=O)OC (some centres not stated) has an IC50 [2] of 1.5 µM.

Cc1nc(N)c2c(CCc3ccc(C(=O)O)cc3)coc2n1 showed an IC50 [2] of 0.17 µM.

With Cc1ccc2nc(NC(=O)CSc3nc4c(c(=O)n3-c3ccccc3)SCC4)sc2c1 the IC50 [1] was 0.028 µM.

In the case of CC(C)Cc1c(C#N)c(N)nc(SCC(=O)c2ccc(-c3ccccc3)cc2)c1C#N, the IC50 [1] is reported as 0.01 µM.

Molecule CCOc1ccc(NC(=O)CSc2nnc(-c3ccncc3)n2-c2ccccc2)cc1 has an IC50 [1] of 0.09 µM.

Molecule COc1nn(-c2cccc([N+](=O)[O-])c2)c(=O)o1 has an IC50 [3] of 0.06 µM.

With Cc1ccc2nc(NC(=O)CSc3nc4c(c(=O)n3C)SC(C)C4)sc2c1 (configuration not stated) the IC50 [1] was 0.015 µM.

Work on CC(C)CCCC(=O)CCCCCCC(=O)CCN(O)C(=O)[C@@H](N)CO yielded an IC50 [4] of 0.021 µM.

Work on CCCCCCCCCCCCCCC(Br)C(=O)OC (configuration not stated) yielded an IC50 [5] of 38 µM.

COc1nn(-c2ccc(F)cc2)c(=O)o1 gave an IC50 [3] of 0.03 µM.

Molecule CC(C)Cc1ccc(C(C)CN2CCNC[C@@H]2CCCCN2CCN(CC(C)c3ccc(CC(C)C)cc3)[C@@H](Cc3ccc(O)cc3)C2)cc1 (some centres not stated) has a Ki [6] of 72 µM.

In the case of O=C(Cn1cc(I)c(=O)c(I)c1)Nc1ccc(-c2ccccc2)cn1, the IC50 [7] is reported as 0.02 µM.

In the case of COc1ccc(-n2nc(C(=O)NCC(=O)Nc3nc4ccc(OC)cc4s3)c3ccccc3c2=O)cc1, the IC50 [1] is reported as 0.058 µM.

For NC(=O)CCCC/C=C1\C(=O)OC1CCc1ccccc1 (configuration not stated), the IC50 [3] was ≥ 10 µM.

With CCCCCC[C@@H](O)CCCCCC/C=C/[C@H](O)[C@@H](O)[C@H](O)[C@H](N)C(=O)O the IC50 [4] was 0.02 µM.

With C#CCCCCCCCC[C@@H]1OC(=O)[C@H]1CCCCS(=O)(=O)CCCN(C)C the IC50 [8] was 0.0324 µM.

For O=C(O)C(=O)c1ccc(OCCOc2ccc3ccccc3c2)s1, the IC50 [9] was 16 µM.

Molecule N#CCC(=O)NCCc1ccc(OC(=O)c2cccc(Oc3ccccc3)c2)cc1 has an inhibition (Homo sapiens) of 71.3%.

Molecule CCCCCC[C@@H](O)CCCCCCCC[C@@H](O)[C@H](N)C(=O)O has an IC50 [4] of 0.224 µM.
